Assay results: ChEMBL document CHEMBL3608238, “Coronaridine, an iboga type alkaloid from Tabernaemontana divaricata, inhibits the Wnt signaling pathway by decreasing β-catenin mRNA expression” (Bioorg Med Chem Lett, 2015)
Calls of active or inactive are those of the source. The rule behind the calls is not given here.

Columns and labels:
[1] = tested on: HEK293; experiment: Cytotoxicity against HEK293 cells assessed as cell viability after 24 hrs by fluorescence assay; type: cell-based; settings: Homo sapiens, HEK293, 24 h
[2] = Cytotoxicity against Wnt-dependent human DLD1 cells assessed as cell viability after 24 hrs by fluorescence assay; type: functional, cell-based; settings: DLD-1, 24 h
[3] = tested on: HCT-116; experiment: Cytotoxicity against Wnt-dependent human HCT116 cells assessed as cell viability after 24 hrs by fluorescence assay; type: functional, cell-based; settings: HCT-116, 24 h
[4] = tested on: SW480; experiment: Cytotoxicity against Wnt-dependent human SW480 cells assessed as cell viability after 24 hrs by fluorescence assay; type: functional, cell-based; settings: SW480, 24 h
[5] = tested on: HEK-293T; experiment: Inhibition of Wnt/beta-catenin in HEK293T cells assessed as inhibition of TCF/beta catenin transcription at 10 to 40 uM after 24 hrs by SuperFOPFlash reporter gene assay; type: cell-based; settings: Homo sapiens
[6] = (§1) Inhibition of Wnt/beta-catenin in human STF/293 cells assessed as inhibition of TCF/beta catenin transcription after 24 hrs by SuperTOPFlash reporter gene assay; type: cell-based; settings: STF/293, 24 h
[7] = tested on: STF/293; experiment: as §1; type: cell-based
[8] = tested on: HEK-293T; experiment: Cytotoxicity against HEK293T cells assessed as cell viability after 24 hrs by fluorescence assay; type: cell-based; settings: Homo sapiens
[9] = tested on: RKO; experiment: Cytotoxicity against Wnt-independent human RKO cells assessed as cell viability after 24 hrs by fluorescence assay; type: cell-based
[10] = tested on: HEK-293T; experiment: Inhibition of Wnt/beta-catenin in HEK293T cells assessed as inhibition of TCF/beta catenin transcription at 5 to 20 uM after 24 hrs by SuperFOPFlash reporter gene assay; type: cell-based; settings: Homo sapiens
[11] = tested on: SW480; experiment: Effect on CK1alpha expression in human SW480 cells at 10 to 40 uM after 24 hrs by Western blot analysis; type: functional, cell-based
[12] = tested on: SW480; experiment: Inhibition of Wnt/beta-catenin in human SW480 cells assessed as decrease in cytosolic beta-catenin level at 10 to 40 uM after 24 hrs by Western blot analysis; type: cell-based
[13] = tested on: SW480; experiment: Effect on GSK3beta expression in human SW480 cells at 10 to 40 uM after 24 hrs by Western blot analysis; type: functional, cell-based
[14] = tested on: SW480; experiment: Inhibition of Wnt/beta-catenin in human SW480 cells assessed as decrease in nuclear beta-catenin level at 10 to 40 uM after 24 hrs by Western blot analysis; type: cell-based
[15] = tested on: SW480; experiment: Inhibition of Wnt/beta-catenin in human SW480 cells assessed as beta-catenin phosphorylation at Ser45 at 10 to 40 uM after 24 hrs by Western blot analysis; type: cell-based
[16] = tested on: SW480; experiment: Inhibition of Wnt/beta-catenin in human SW480 cells assessed as beta-catenin phosphorylation at Ser33/Ser37/Thr40 at 10 to 40 uM after 24 hrs by Western blot analysis; type: cell-based
[17] = tested on: SW480; experiment: Inhibition of Wnt/beta-catenin in human SW480 cells assessed as decrease in beta-catenin mRNA level at 40 uM by real time RT-PCR analysis; type: cell-based
[18] = tested on: SW480; experiment: Inhibition of Wnt/beta-catenin in proteasome inhibitor MG132 pretreated human SW480 cells assessed as decrease in beta-catenin level at 40 uM co-treated with MG132 for 12 hrs by Western blot analysis; type: cell-based

SMILES: CC[C@H]1C[C@@H]2CN3CCc4c([nH]c5ccc(OC)cc45)[C@](C(=O)OC)(C2)[C@H]13 [VOACANGINE]
- IC50 [1]: > 40 µM
- IC50 [2]: > 40 µM
- IC50 [3]: > 40 µM
- IC50 [4]: > 40 µM
- inhibition [5]: inactive
- IC50 [6]: 11.5 µM
- inhibition [7]: Dose-dependent effect
- IC50 [8]: > 40 µM
- IC50 [9]: > 40 µM

SMILES: CC[C@H]1C[C@@H]2CN3CCc4c([nH]c5cc(OC)ccc45)[C@](C(=O)OC)(C2)[C@H]13 [ISOVOACANGINE]
- IC50 [1]: 35.6 µM
- IC50 [2]: > 40 µM
- IC50 [3]: 24.4 µM
- IC50 [4]: 11.2 µM
- IC50 [6]: 6 µM
- inhibition [7]: Dose-dependent effect
- IC50 [8]: > 40 µM
- inhibition [10]: Active
- IC50 [9]: > 40 µM

SMILES: CC[C@H]1C[C@@H]2CN3CC[C@]4(O)C(=Nc5ccccc54)[C@](C(=O)OC)(C2)[C@H]13 [CORONARIDINE HYDROXYINDOLENINE]
- IC50 [1]: > 40 µM
- IC50 [2]: > 40 µM
- IC50 [3]: > 40 µM
- IC50 [4]: > 40 µM
- IC50 [6]: 7.3 µM
- inhibition [7]: Dose-dependent effect
- IC50 [8]: > 40 µM
- inhibition [10]: Active
- IC50 [9]: > 40 µM

SMILES: CC[C@H]1C[C@@H]2CN3CCc4c([nH]c5ccccc45)[C@](C(=O)OC)(C2)[C@H]13 [CORONARIDINE]
- Activity [11]: inactive
- IC50 [1]: 31.7 µM
- IC50 [2]: 24.4 µM
- inhibition [12]: Active
- Activity [13]: inactive
- IC50 [3]: 11.6 µM
- inhibition [14]: Active
- inhibition [15]: inactive
- inhibition [16]: inactive
- IC50 [4]: 10.4 µM
- inhibition [17]: Active
- IC50 [6]: 5.8 µM
- inhibition [7]: Dose-dependent effect
- IC50 [8]: > 40 µM
- inhibition [10]: Active
- IC50 [9]: > 40 µM
- inhibition [18]: Active
